Measured values as given in patent publication US12129223B2, “Lipids for use in lipid nanoparticle formulations” (Acuitas Therapeutics, Inc., priority 2021, dated 2024).

How the values were obtained:
[1] = Determination of pKa of formulated lipids (TNS fluorescence assay in lipid nanoparticles); format: physicochemical; details: lipid nanoparticles (compound/DSPC/cholesterol/PEG-lipid), lipid formulated in LNP (lipid/DSPC/cholesterol/PEG-lipid), pH at half-maximal intensity
Experimental: As described elsewhere, the pKa of formulated lipids is correlated with the effectiveness of LNPs for delivery of nucleic acids (see Jayaraman et al, Angewandte Chemie, International Edition (2012), 51(34), 8529-8533; Semple et al, Nature Biotechnology 28, 172-176 (2010)). In some embodiments, the preferred range of pKa is ˜5 to ˜7. The pKa of each lipid is determined in lipid nanoparticles using an assay based on fluorescence of 2-(p-toluidino)-6-napthalene sulfonic acid (TNS). Lipid nanoparticles comprising compound of structure (I)/DSPC/cholesterol/PEG-lipid (50/10/38.5/1.5 or 47.5:10:40.7:1.8 mol %) in PBS at a concentration of 0.4 mM total lipid are prepared using the in-line process as described in Example 1. TNS is prepared as a 100 μM stock solution in distilled water. Vesicles are diluted to 24 μM lipid in 2 mL of buffered solutions containing 10 mM HEPES, 10 mM MES, 10 mM ammonium acetate, and 130 mM NaCl, where the pH ranged from 2.5 to 11. An aliquot of the TNS solution is added to give a final concentration of 1 μM and following vortex mixing fluorescence intensity is measured at room temperature in a SLM Aminco Series 2 Luminescence Spectrophotometer using excitation and emission wavelengths of 321 nm and 445 nm. A sigmoidal best fit analysis is applied to the fluorescence data and the pKa is measured as the pH giving rise to half-maximal fluorescence intensity.

[2] = tested on: human IgG in mouse serum; test: Immunoglobulin G (IgG) mRNA in vivo evaluation using lipid nanoparticle compositions; parameters: species or system mice; details: LNP with IgG mRNA, tail vein injection, serum 24 hours after administration; for Serum IgG @ 0.3 mg/kg: 0.3 mg mRNA/kg; for Serum IgG @ 1.0 mg/kg: 1.0 mg mRNA/kg
Experimental: (§1) A lipid of structure (I), DSPC, cholesterol and PEG-lipid are solubilized in ethanol at a molar ratio of 50:10:38.5:1.5 or 47.5:10:40.7:1.8. Lipid nanoparticles (LNP) are prepared at a total lipid to mRNA weight ratio of approximately 10:1 to 40:1. Briefly, the mRNA is diluted to 0.2 mg/mL in 10 to 50 mM citrate buffer, pH 4 or 10 to 25 mM acetate buffer, pH 4. Syringe pumps are used to mix the ethanolic lipid solution with the mRNA aqueous solution at a ratio of about 1:5 to 1:3 (vol/vol) with total flow rates above 15 mL/min. The ethanol is then removed and the external buffer replaced with PBS by dialysis. Finally, the lipid nanoparticles are filtered through a 0.2 µm pore sterile filter.
Studies are performed in 6-8 week old CD-1/ICR mice (Envigo) according to guidelines established by an institutional animal care committee (ACC) and the Canadian Council on Animal Care (CCAC). Varying doses of mRNA-lipid nanoparticle are systemically administered by tail vein injection and animals euthanized at a specific time point (e.g., 24 hours) post-administration. The whole blood is collected, and the serum subsequentially separated by centrifuging the tubes of the whole blood at 2000×g for 10 minutes at 4° C. and stored at −80° C. until use for analysis.
For immunoglobulin G (IgG) ELISA (Life Diagnostics Human IgG ELISA kit), the serum samples are diluted at 100 to 15000 folds with 1×diluent solution. 100 μL of diluted serum is dispensed into anti-human IgG coated 96-well plate in duplicate alongside human IgG standards and incubated in a plate shaker at 150 rpm at 25° C. for 45 minutes. The wells are washed 5 times with 1× wash solution using a plate washer (400 μL/well). 100 μL of HRP conjugate is added into each well and incubated in a plate shaker at the same condition above. The wells are washed 5 times again with 1× wash solution using a plate washer (400 μL/well). 100 μL of TMB reagent is added into each well and incubated in a plate shaker at the same condition above. The reaction is stopped by adding 100 μL of Stop solution to each well. The absorbance is read at 450 nm (A450) with a microplate reader. The amount of human IgG in mouse serum is determined by plotting A450 values for the assay standard against human IgG concentration.
(§2) Representative compounds of the disclosure shown in Table 2 were formulated using the following molar ratio: 50% cationic lipid/10% distearoylphosphatidylcholine (DSPC)/38.5% Cholesterol/1.5% PEG lipid 2-[2-(ω-methoxy(polyethyleneglycol2000)ethoxy]-N,N-ditetradecyl acetamide) or 47.5% cationic lipid/10% DSPC/40.7% Cholesterol/1.8% PEG lipid. Relative activity was determined by measuring luciferase expression in the liver 4 hours following administration via tail vein injection as described in Example 1 or by measuring the amount of human IgG in mouse serum as described in example 2. The activity was compared at a dose of 1.0 or 0.5 or 0.3 mg mRNA/kg and expressed as ng luciferase/g liver measured 4 hours after administration, as described in Example 1 or as μg IgG/mL serum measured 24 hours after administration, as described in Example 2. Compound numbers in Table 2 refer to the compound numbers of Table 1.

[3] = tested on: luciferase expression in the liver; test: Luciferase mRNA in vivo evaluation using lipid nanoparticle compositions; parameters: species or system mice; details: LNP with FLuc mRNA, tail vein injection, ng luciferase/g liver 4 hours after administration; for Liver Luc @ 0.3 mg/kg: 0.3 mg mRNA/kg; for Liver Luc @ 1.0 mg/kg: 1.0 mg mRNA/kg
Experimental: as §1
Studies are performed in 6-8 week old female C57BL/6 mice (Charles River) 8-10 week old CD-1 (Harlan) mice (Charles River) according to guidelines established by an institutional animal care committee (ACC) and the Canadian Council on Animal Care (CCAC). Varying doses of mRNA-lipid nanoparticle are systemically administered by tail vein injection and animals euthanized at a specific time point (e.g., 4 hours) post-administration. Liver and spleen are collected in pre-weighed tubes, weights determined, immediately snap frozen in liquid nitrogen and stored at −80° C. until processing for analysis.
For liver, approximately 50 mg is dissected for analyses in a 2 mL FastPrep tubes (MP Biomedicals, Solon OH). ¼″ ceramic sphere (MP Biomedicals) is added to each tube and 500 μL of Glo Lysis Buffer—GLB (Promega, Madison WI) equilibrated to room temperature is added to liver tissue. Liver tissues are homogenized with the FastPrep24 instrument (MP Biomedicals) at 2×6.0 m/s for 15 seconds. Homogenate is incubated at room temperature for 5 minutes prior to a 1:4 dilution in GLB and assessed using SteadyGlo Luciferase assay system (Promega). Specifically, 50 μL of diluted tissue homogenate is reacted with 50 μL of SteadyGlo substrate, shaken for 10 seconds followed by 5 minute incubation and then quantitated using a CentroXS^3 LB 960 luminometer (Berthold Technologies, Germany). The amount of protein assayed is determined by using the BCA protein assay kit (Pierce, Rockford, IL). Relative luminescence units (RLU) are then normalized to total μg protein assayed. To convert RLU to ng luciferase a standard curve is generated with QuantiLum Recombinant Luciferase (Promega).
The FLuc mRNA (L-6107) from Trilink Biotechnologies will express a luciferase protein, originally isolated from the firefly, Photinus pyralis. FLuc is commonly used in mammalian cell culture to measure both gene expression and cell viability. It emits bioluminescence in the presence of the substrate, luciferin. This capped and polyadenylated mRNA is fully substituted with 5-methylcytidine and pseudouridine.
as §2

| pKa [1] | SMILES | Serum IgG @ 0.3 mg/kg [2] [µg/mL] | Serum IgG @ 1.0 mg/kg [2] [µg/mL] | Liver Luc @ 0.3 mg/kg [3] [ng/g] | Liver Luc @ 1.0 mg/kg [3] [ng/g] |
| --- | --- | --- | --- | --- | --- |
| 6.67 | CCCCCCCCCCCCN(CCCCCCCCCCCC)C(=O)CCCCCN(C)CCCCCC(=O)N(CCCCCCCCCCCC)CCCCCCCCCCCC [Compound I-11, 6,6′-(methylazanediyl)bis(N,N-didodecylhexanamide)] | 8.22 ± 0.84 | 47.68 ± 5.26 |  |  |
| 6.17 | CCCCCCCCCCCCN(CCCCCCCCCCCC)C(=O)CCCCCCCN(C)CCCCCCCC(=O)N(CCCCCCCCCCCC)CCCCCCCCCCCC [Compound I-40, 8,8′-(methylazanediyl)bis(N,N-didodecyloctanamide)] | 16.72 ± 5.38 | 101.96 ± 4.12 |  |  |
| 6.02 | CCCCCCCCCCN(CCCCCCCCCC)C(=O)CCCCCCCN(CCCCCCCC(=O)N(CCCCCCCCCC)CCCCCCCCCC)CCCC(C)(C)CO [Compound I-43, 8,8′-((5-hydroxy-4,4-dimethylpentyl)azanediyl)bis(N,N-didecyloctanamide)] | 2.45 ± 0.66 | 9.97 ± 1.17 |  |  |
| 5.96 | CCCCCCCCCCN(CCCCCCCCCC)C(=O)CCCCCCCN(CCCCCCCO)CCCCCCCC(=O)N(CCCCCCCCCC)CCCCCCCCCC [Compound I-45, 8,8′-((7-hydroxyheptyl)azanediyl)bis(N,N-didecyloctanamide)] | 3.03 ± 0.66 | 13.00 ± 2.05 |  |  |
| 6.63 | CCCCCCCCCCN(CCCCCCCCCC)C(=O)CCCCCCCN(CCCCCCCC(=O)N(CCCCCCCCCC)CCCCCCCCCC)CCCn1ccnc1 [Compound I-48, 8,8′-((3-(1H-imidazol-1-yl)propyl)azanediyl)bis(N,N-didecyloctanamide)] | 1.02 ± 0.20 | 3.40 ± 0.87 |  |  |
| 6.33 | CCCCCCCCCCN(CCCCCCCCN(C)CCCCCCCCN(CCCCCCCCCC)C(=O)CCCCCCCCC)C(=O)CCCCCCCCC [Compound I-65] |  |  | 3172 ± 658 | 24740 ± 6297 |
| 6.17 | CCCCCCCCC(CCCCCC)C(=O)N(C)CCCCCCCCN(C)CCCCCCCCN(C)C(=O)C(CCCCCC)CCCCCCCC (centres unmarked) [Compound I-70, N,N′-((methylazanediyl)bis(octane-8,1-diyl))bis(2-hexyl-N-methyldecanamide)] |  |  | 7516 ± 1487 | 33238 ± 9902 |

More lines, now with the values behind:

| SMILES | pKa [1] | Serum IgG @ 0.3 mg/kg [2] [µg/mL] | Serum IgG @ 1.0 mg/kg [2] [µg/mL] | Liver Luc @ 0.3 mg/kg [3] [ng/g] | Liver Luc @ 1.0 mg/kg [3] [ng/g] |
| --- | --- | --- | --- | --- | --- |
| CCCCCCCCCCCCN(CCCCCCCCCCCC)C(=O)CCCCCCCN(CCO)CCCCCCCC(=O)N(CCCCCCCCCCCC)CCCCCCCCCCCC [Compound I-37, 8,8′-((2-hydroxyethyl)azanediyl)bis(N,N-didodecyloctanamide)] | 6.39 | 1.75 ± 0.58 | 10.05 ± 2.32 |  |  |
| CCCCCCCCCCCCN(CCCCCCCCCCCC)C(=O)CCCCCN(CCCCCCO)CCCCCC(=O)N(CCCCCCCCCCCC)CCCCCCCCCCCC [Compound I-38, 6,6′-((6-hydroxyhexyl)azanediyl)bis(N,N-didodecylhexanamide)] | 6.48 | 4.71 ± 0.46 | 45.87 ± 2.33 |  |  |
| CCCCCCCCCCN(CCCCCCCCCC)C(=O)CCCCCCCN(CCCO)CCCCCCCC(=O)N(CCCCCCCCCC)CCCCCCCCCC [Compound I-41, 8,8′-((3-hydroxypropyl)azanediyl)bis(N,N-didecyloctanamide)] | 6.6 | 4.78 ± 1.65 |  |  |  |
| CCCCCCCCCCN(CCCCCCCCCC)C(=O)CCCCCCCN(CCCCCCCC(=O)N(CCCCCCCCCC)CCCCCCCCCC)CCOCCO [Compound I-42, 8,8′-((2-(2-hydroxyethoxy)ethyl)azanediyl)bis(N,N-didecyloctanamide)] | 6.66 | 3.13 ± 0.27 | 12.42 ± 3.81 |  |  |
| CCCCCCCCCCN(CCCCCCCCCC)C(=O)CCCCCCCN(CCCCCCCC(=O)N(CCCCCCCCCC)CCCCCCCCCC)CCCn1ccnc1C [Compound I-44, 8,8′-((3-(2-methyl-1H-imidazol-1-yl)propyl)azanediyl)bis(N,N-didecyloctanamide)] | 6.69 | 0.59 ± 0.11 | 1.86 ± 0.27 |  |  |
| CCCCCCCCCCN(CCCCCCCCCC)C(=O)CCCCCCCN(CCCCCCCC(=O)N(CCCCCCCCCC)CCCCCCCCCC)CCCNc1c(NC)c(=O)c1=O [Compound I-50, 8,8′-((3-((2-(methylamino)-3,4-dioxocyclobut-1-en-1-yl)amino)propyl)azanediyl)bis(N,N-didecyloctanamide)] | 6.73 | 1.32 ± 0.28 | 11.05 ± 2.19 |  |  |
| CCCCCCCCCCN(CCCCCCCCCC)C(=O)CCCCCCCCCN(CCCCCCCCCC(=O)N(CCCCCCCCCC)CCCCCCCCCC)CCCNc1c(NC)c(=O)c1=O [Compound I-60, 10,10′-((3-((2-(methylamino)-3,4-dioxocyclobut-1-en-1-yl)amino)propyl)azanediyl)bis(N,N-didecyldecanamide)] | 6.38 |  |  | 2176 ± 162 | 9178 ± 2483 |
